# Results published in PubChem BioAssay (NCI).
#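 1) Cells in 96-well plates. 2) Compound, 48 h, 5 concentrations. 3) Linear interpolation between surrounding doses. 4) Unreached endpoint = highest concentration. At the GI50, growth is halved. Definition used: TGI = concentration required for complete inhibition of growth.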
# Columns and labels:
# Experiment in all cases: growth of human tumour cells (NCI), 48 h
# SK-MEL-2 melanoma = tested on: SK-MEL-2 melanoma
# TK-10 renal = tested on: TK-10 renal
# MOLT-4 leukemia = tested on: MOLT-4 leukemia
# HOP-62 NSCLC = tested on: HOP-62 NSCLC
# SR leukemia = tested on: SR leukemia
# PC-3 prostate = tested on: PC-3 prostate
# KM12 colon = tested on: KM12 colon
# NCI-H460 lung = tested on: NCI-H460 lung
# SF-268 CNS = tested on: SF-268 CNS
# SK-MEL-5 melanoma = tested on: SK-MEL-5 melanoma
# DU-145 prostate = tested on: DU-145 prostate
# SK-MEL-28 melanoma = tested on: SK-MEL-28 melanoma
# NCI-H522 lung = tested on: NCI-H522 lung
# MCF7 breast = tested on: MCF7 breast
# UACC-257 melanoma = tested on: UACC-257 melanoma
# SF-539 CNS = tested on: SF-539 CNS
# HCT-15 colon = tested on: HCT-15 colon
# OVCAR-5 ovarian = tested on: OVCAR-5 ovarian
# NCI-H23 lung = tested on: NCI-H23 lung
# NCI-H226 lung = tested on: NCI-H226 lung
# SF-295 CNS = tested on: SF-295 CNS
# OVCAR-3 ovarian = tested on: OVCAR-3 ovarian
# MDA-MB-231 breast = tested on: MDA-MB-231 breast
# OVCAR-4 ovarian = tested on: OVCAR-4 ovarian
# ACHN renal = tested on: ACHN renal
# RPMI-8226 leukemia = tested on: RPMI-8226 leukemia
# NCI/ADR-RES ovarian = tested on: NCI/ADR-RES ovarian
# EKVX NSCLC = tested on: EKVX NSCLC
# BT-549 breast = tested on: BT-549 breast
# SN12C renal = tested on: SN12C renal
# UACC-62 melanoma = tested on: UACC-62 melanoma
# M14 melanoma = tested on: M14 melanoma
# RXF 393 renal = tested on: RXF 393 renal
# 786-0 renal = tested on: 786-0 renal
# OVCAR-8 ovarian = tested on: OVCAR-8 ovarian
# SNB-75 CNS = tested on: SNB-75 CNS
# SK-OV-3 ovarian = tested on: SK-OV-3 ovarian
# A549 NSCLC = tested on: A549 NSCLC
# SW-620 colon = tested on: SW-620 colon
# T-47D breast = tested on: T-47D breast
# IGROV1 ovarian = tested on: IGROV1 ovarian
# U251 CNS = tested on: U251 CNS
# A498 renal = tested on: A498 renal
# LOX IMVI melanoma = tested on: LOX IMVI melanoma
# HCC-2998 colon = tested on: HCC-2998 colon
# CAKI-1 renal = tested on: CAKI-1 renal
# K-562 leukemia = tested on: K-562 leukemia
# SNB-19 CNS = tested on: SNB-19 CNS
# UO-31 renal = tested on: UO-31 renal
# HT29 colon = tested on: HT29 colon
# CCRF-CEM leukemia = tested on: CCRF-CEM leukemia
# COLO 205 colon = tested on: COLO 205 colon
# HCT-116 colon = tested on: HCT-116 colon
# HL-60(TB) leukemia = tested on: HL-60(TB) leukemia
compound,measurement,setting,value
COc1ccc(Cn2cc3c(c2-c2ccccc2)CCc2cnoc2-3)cc1N,GI50,SK-MEL-2 melanoma,273 nM
same,TGI,SK-MEL-2 melanoma,> 100000 nM
same,GI50,TK-10 renal,626 nM
same,TGI,TK-10 renal,> 100000 nM
same,GI50,MOLT-4 leukemia,398 nM
same,TGI,MOLT-4 leukemia,> 96100 nM
same,GI50,HOP-62 NSCLC,433 nM
same,TGI,HOP-62 NSCLC,> 100000 nM
same,GI50,SR leukemia,52.8 nM
same,TGI,SR leukemia,4250 nM
same,GI50,PC-3 prostate,551 nM
same,TGI,PC-3 prostate,> 100000 nM
same,GI50,KM12 colon,78.8 nM
same,TGI,KM12 colon,2580 nM
same,GI50,NCI-H460 lung,115 nM
same,TGI,NCI-H460 lung,1660 nM
same,GI50,SF-268 CNS,812 nM
same,TGI,SF-268 CNS,> 100000 nM
same,GI50,SK-MEL-5 melanoma,61.7 nM
same,TGI,SK-MEL-5 melanoma,2580 nM
same,GI50,DU-145 prostate,210 nM
same,TGI,DU-145 prostate,1270 nM
same,GI50,SK-MEL-28 melanoma,247 nM
same,TGI,SK-MEL-28 melanoma,> 100000 nM
same,GI50,NCI-H522 lung,27 nM
same,TGI,NCI-H522 lung,339 nM
same,GI50,MCF7 breast,50 nM
same,TGI,MCF7 breast,> 100000 nM
same,GI50,UACC-257 melanoma,10200 nM
same,TGI,UACC-257 melanoma,> 100000 nM
same,GI50,SF-539 CNS,158 nM
same,TGI,SF-539 CNS,579 nM
same,GI50,HCT-15 colon,150 nM
same,TGI,HCT-15 colon,> 100000 nM
same,GI50,OVCAR-5 ovarian,629 nM
same,TGI,OVCAR-5 ovarian,> 100000 nM
same,GI50,NCI-H23 lung,441 nM
same,TGI,NCI-H23 lung,> 100000 nM
same,GI50,NCI-H226 lung,2240 nM
same,TGI,NCI-H226 lung,> 100000 nM
same,GI50,SF-295 CNS,154 nM
same,TGI,SF-295 CNS,3280 nM
same,GI50,OVCAR-3 ovarian,52.6 nM
same,TGI,OVCAR-3 ovarian,244 nM
same,GI50,MDA-MB-231 breast,1030 nM
same,TGI,MDA-MB-231 breast,> 100000 nM
same,GI50,OVCAR-4 ovarian,898 nM
same,TGI,OVCAR-4 ovarian,> 100000 nM
same,GI50,ACHN renal,1110 nM
same,TGI,ACHN renal,> 100000 nM
same,GI50,RPMI-8226 leukemia,310 nM
same,GI50,NCI/ADR-RES ovarian,82.8 nM
same,GI50,EKVX NSCLC,359 nM
same,TGI,EKVX NSCLC,> 100000 nM
same,GI50,BT-549 breast,3010 nM
same,TGI,BT-549 breast,> 100000 nM
same,GI50,SN12C renal,694 nM
same,TGI,SN12C renal,> 100000 nM
same,GI50,UACC-62 melanoma,182 nM
same,TGI,UACC-62 melanoma,> 100000 nM
same,GI50,M14 melanoma,227 nM
same,TGI,M14 melanoma,> 100000 nM
same,GI50,RXF 393 renal,320 nM
same,TGI,RXF 393 renal,> 100000 nM
same,GI50,786-0 renal,602 nM
same,TGI,786-0 renal,> 100000 nM
same,GI50,OVCAR-8 ovarian,468 nM
same,TGI,OVCAR-8 ovarian,> 100000 nM
same,GI50,SNB-75 CNS,114 nM
same,TGI,SNB-75 CNS,777 nM
same,GI50,SK-OV-3 ovarian,252 nM
same,TGI,SK-OV-3 ovarian,> 100000 nM
same,GI50,A549 NSCLC,224 nM
same,TGI,A549 NSCLC,> 100000 nM
same,GI50,SW-620 colon,77.9 nM
same,TGI,SW-620 colon,> 100000 nM
same,GI50,T-47D breast,3860 nM
same,TGI,T-47D breast,> 100000 nM
same,GI50,IGROV1 ovarian,329 nM
same,TGI,IGROV1 ovarian,> 100000 nM
same,GI50,U251 CNS,287 nM
same,TGI,U251 CNS,> 100000 nM
same,GI50,A498 renal,63.8 nM
same,TGI,A498 renal,640 nM
same,GI50,LOX IMVI melanoma,766 nM
same,TGI,LOX IMVI melanoma,> 100000 nM
same,GI50,HCC-2998 colon,496 nM
same,TGI,HCC-2998 colon,> 100000 nM
same,GI50,CAKI-1 renal,116 nM
same,TGI,CAKI-1 renal,> 100000 nM
same,GI50,K-562 leukemia,45.2 nM
same,TGI,K-562 leukemia,> 100000 nM
same,GI50,SNB-19 CNS,531 nM
same,TGI,SNB-19 CNS,> 100000 nM
same,GI50,UO-31 renal,967 nM
same,TGI,UO-31 renal,> 100000 nM
same,GI50,HT29 colon,1780 nM
same,TGI,HT29 colon,15100 nM
same,GI50,CCRF-CEM leukemia,245 nM
same,GI50,COLO 205 colon,1320 nM
same,TGI,COLO 205 colon,4080 nM
same,GI50,HCT-116 colon,99.6 nM
same,TGI,HCT-116 colon,> 33900 nM
same,GI50,HL-60(TB) leukemia,137 nM
same,TGI,HL-60(TB) leukemia,617 nM
